Laboratory results taken from patent US20140357706A1, “Stearate Compounds” (THE UAB RESEARCH FOUNDATION, priority 2011, published 2014).

Legend:
lung metastatic tumors = experiment: Immunohistochemistry of lung metastatic tumors (CD31, Ki67, caspase-3), experiment 2; assay type: in vivo, mice
Experimental: Paraffin sections were prepared as described previously (21). 5 μm thick sections were cut from the formalin fixed, paraffin embedded tissue blocks and floated onto charged glass slides (Super-Frost Plus, Fisher Scientific, Pittsburgh, Pa.) and dried overnight at 60° C. A hemotoxylin and eosin stained section was obtained from each tissue block. All sections for immunohistochemistry were deparaffinized and hydrated using graded concentrations of ethanol to deionized water.
CD31 immunostaining was done as described previously^(21). Briefly, the tissue sections were subjected to pretreatment with 0.5 M tris buffer (pH 10). All sections were washed gently in deionized water, then transferred in to 0.05 M Tris-based solution in 0.15 M NaCl with 0.1% v/v Triton-X-100, pH 7.6 (TBST). Endogenous peroxidase was blocked with 3% hydrogen peroxide for 10 min. To reduce further nonspecific background staining, slides were incubated with avidin (Jackson ImmunoResearch, West Grove, Pa.) and biotin blocking solutions (Sigma, to St. Louis, Mo.) for 15 min each, and 3% normal goat serum (Sigma, St. Louis, Mo.) for 20 min. All slides were then incubated at 4° C. overnight with rabbit polyclonal antibody against CD31 (1:200 dilution) (Abeam, Cambridge, Mass.). […]
Bioquant® Image Analysis software (Rtm Biometrics, Nashville, Tenn.) was used to evaluate the immunostaining. […] The numbers of positive and negative cells in these hot spots were then counted and averaged at 5 magnification X40. The percentage of cells stained with Ki67 or caspase-3 was subsequently calculated for comparison. For CD31 immunostaining, the MVD was measured based on Weidner's method (37). […] The number of microvessels in these hot spots was counted at magnification X40, and the density was then calculated for comparison. Each positive endothelial cell cluster of immunoreactivity was counted as an individual vessel in addition to the morphologically identifiable vessels with a lumen.

[1] = test system: MDA-MB-435 human breast cancer cells; experiment: MDA-MB-435 lung metastasis model, experiment 2 (diet started with chemotherapy after surgery); assay type: in vivo, mice
Experimental: 3-4 week old female athymic mice were purchased from Harlan Sprague Dawley, Inc. (Indianapolis, Ind.) and were maintained in microisolater cages in pathogen-free facilities. […] The diets were prepared by Harlan-Teklad (Madison, Wis.). The animals were fed ad libitum and the amount of food consumed was recorded. Mice were anesthetized with 3% isoflurane in 2.5% O2 and weighed weekly. All in vivo procedures were approved by the Institutional Animal Care and Use Committee (IACUC), University of Alabama at Birmingham (UAB).
MDA-MB-435 human breast cancer cells (obtained from Dr. Dan Welch; UAB) were grown and maintained in DMEM:F12 supplemented with 5% FBS, 2 mM glutamine, 1 mM sodium pyruvate, 0.2× non-essential amino acids and 1% penicillin/streptomycin (5% CO2). Cells were grown to 80-90% confluence prior to preparation for injection. To detach cells from the plates, cells were washed with PBS and then treated with 3 mM versene. […]
Lungs were placed under the dissecting microscope (Fisher Scientific, Hanover Park, Ill.) for measurement of metastatic tumor size. Tumor size is expressed as an average of the longest and shortest diameter. The tumors were split into three groups according to their sizes (<0.1 cm, small tumor; 0.1-0.2 cm, medium tumor; >0.2 cm, large tumor), and the number of tumors per mouse was counted separately.

CC(=O)O[C@H]1C(=O)[C@@]2(C)[C@H]([C@H](OC(=O)c3ccccc3)[C@]3(O)C[C@H](OC(=O)[C@H](O)[C@@H](NC(=O)c4ccccc4)c4ccccc4)C(C)=C1C3(C)C)[C@]1(OC(C)=O)CO[C@@H]1C[C@@H]2O [paclitaxel]
Caspase-3 positive cells (lung metastatic tumors; compared to control diet group): significantly increased
Percentage of Ki67 positive cells (proliferation) (lung metastatic tumors; two-way ANOVA): significantly inhibited
Microvessel density (MVD), CD31 (lung metastatic tumors; two-way ANOVA, PTX VS. no PTX, diet VS. control diet group): decreased the MVD significantly
Incidence of lung metastases ([1]; PTX vs same diet without PTX, p<0.01, about 20 mg/kg i.p.): significantly lower
Number of lung metastases ([1]; two-way ANOVA, PTX VS. no PTX, diet VS. control diet): significantly reduced
